# Results reported in patent US10765655B2, “Composition containing monoacetyldiglyceride compound as active ingredient for preventing or treating chronic obstructive pulmonary disease” (ENZYCHEM LIFESCIENCES CORPORATION, priority 2013, dated 2020).
# Marks after values point to notes of the source that are not given here.
# Columns and labels:
# IL-4 mRNA = assay: Inhibition of PMA-induced IL-4 mRNA expression in EL-4 cells (PCR); type: cell-based, mouse; conditions: 20 μg/mL, PMA 1 ng/mL; for Inhibition (%) of IL-4 mRNA expression: vs PMA-treated group
# Procedure: Based on the results of Example 1, each of the monoacetyldiacylglycerol compounds was added to EL-4 cells at a concentration of 20 μg/mL, and the effect thereof on the inhibition of PMA-induced expression of IL-4 mRNA in the EL-4 cells was measured. Specifically, the expression level of IL-4 mRNA induced by PMA (1 ng/mL) was measured using real-time polymerase chain reaction (real-time PCR) and quantitative real time polymerase chain reaction (qPCR). For cell preparation, EL-4 cells were seeded into a 6-well plate at a concentration of 1×10^6 cells/well and cultured for 12 hours, after which the cells were treated with each of the monoacetyldiacylglycerol compounds at a concentration of 20 μg/mL for 1 hour and treated with PMA at a concentration of 1 ng/m, followed by culture for 12 hours. Total RNA was extracted from the cells using Trizol B (Invitrogen, USA) and quantified, and then cDNA was synthesized from the total RNA using an Omniscript RT kit (Qiagen, GmbH, Hilden, Germany). The synthesized cDNA as a template was mixed with each of the IL-4 and GAPDH primers shown in Table 2 below and was subjected to PCR using a PCR mix (PCR Master Mix, Bioneer, Korea) under the following conditions: denaturation at 94° C. for 5 minutes; and then 30 cycles, each consisting of 30 sec at 95° C., 45 sec at 60° C., and 45 sec at 72° C.; followed by enzyme inactivation at 72° C. for 10 minutes. The results of measuring the percent inhibition of expression of IL-4 mRNA in EL-4 cells as described above are shown in Table 3 below. The designation of each of the samples shown in Table 3 below is as described with respect to Table above.
# EL-4 cells = conditions: mouse, 24 h, 10 μg/ml
# Procedure: EL-4 cells that are mouse T lymphoma cells were suspended in 10% fetal bovine serum-containing RPMI medium (Gibco) at a concentration of 5×10^4 cells/ml, and 100 μl of the cell suspension was seeded into each well of a 96-well plate and cultured for 12 hours. Next, the cell culture was treated with monoacetyldiacylglycerol (MADG) compounds at the concentrations shown in Table 1 below, and was then additionally cultured for 24 hours. Next, according to the instruction provided in a CCK-8 kit (Dojindo) capable of counting cells, 10 μl of CCK-8 solution was added to the kit and allowed to react for 30 minutes to 4 hours, and then the absorbance (OD) at 570 nm was measured. In equation 1, the negative control group indicates a cell culture treated with 0.2% DMSO. […] Cell viability (%)=[(OD 570 nm value of MADC-treated group)/(OD 570 nm value of negative control group)]×100 Equation 1
# [1] = GLP toxicity test; cited from earlier work
# sepsis animal model = conditions: cecal-ligation-puncture; cited from earlier work
# CD4+ cells = assay: COPD mouse model: CD4+ cells in BAL by flow cytometry; type: in vivo, BALB/c mice; conditions: for CD4^+ cells (10^4): BAL cells; for % inhibition of CD4^+ cells: vs COPD group
# Procedure: (§1) To make COPD mouse models, 8-week-old male BALB/c mice were anesthetized with 7% chloral hydrate, and then intratracheally inhaled with 100 μl of a 1:1 mixture of 100 μg/ml of LPS and 4 mg/ml, of standard cigarette smoking (CS) extract (LPS+CS mixture) once a week for 3 weeks. […] EC-18 was dissolved in 0.5% CMC (carboxmethylcellulose sodium) to concentrations of 30 mg/kg and 60 mg/kg, and administered orally to the mice at 1 hour before intratracheal inhalation of 100 μl of the PS+CS mixture. The mice were divided into: (i) an untreated normal group (intact); (ii) a control group treated with LPS+CS (COPD-control); (iii) a test group administered orally with 30 mg/kg of EC-18 at 1 hour before treatment with LPS+CS; and (iv) a test group administered orally with 60 mg/kg of EC-18 at 1 hour before treatment with the LPS+CS mixture. After completion of the experiment, blood, bronchoalveolar lavage fluid and lung tissue were isolated from the mice of each of the groups.
# (§2) The separated BAL cells were adjusted to 5×10^5 cells, and then subjected to immunofluorescence staining at 4° C. PE-anti-CD4 (553047, BD Pharmingen) and PE-anti-Gr-1 (553128, BD Pharmingen) were added to the cells which were then incubated on ice for 30 minutes. After incubation, the cells were washed three times or more with phosphate buffered saline, and then the frequency of CD4^+ cells and Gr-1^+ neutrophils was analyzed using the Cell Quest program (643274, BD Biosciences) of a flow cytometer. Next, based on total cells, the absolute number of cells in each tissue was calculated.
# TNF-α = assay: COPD mouse model: TNF-α in bronchoalveolar lavage fluid by ELISA; type: in vivo, BALB/c mice; conditions: for TNF-α: BALF; for % inhibition of TNF-α: vs COPD group
# Procedure: as §1
# (§3) The levels of CXCL-1, TNF-α and MIP-2 in the bronchoalveolar lavage isolated from the mice were measured by an enzyme-linked immunosorbent assay (ELISA). An antibody specific for each of CXCL-1, TNF-α and MIP-2 was diluted in coating buffer (291195, R&D System), coated on microwells, and then incubated overnight at 4° C. Each well was washed three times with washing buffer, and then 100 μl of serum (10-fold diluted) was added to each well. Each well was allowed to stand at room temperature for 1 hour, and then washed twice with washing buffer antibody, after which each well was treated with 100 μl of avidin-conjugated HRP (DY998, R&D System) and allowed to stand at room temperature for 1 hour, followed by washing. 100 μl of a TMB substrate was added to each well which was then allowed to stand in a dark room for 30 minutes and treated with 50 μl of a stop solution. Next, the absorbance at 450 nm was measured using an ELISA reader (Emax, Molecular Devices), and the percent inhibition of expression was calculated.
# CXCL-1 = assay: COPD mouse model: CXCL-1 in bronchoalveolar lavage fluid by ELISA; type: in vivo, BALB/c mice; conditions: for CXCL-1: BALF; for % inhibition of CXCL-1: vs COPD group
# Procedure: as §1, §3
# [2] = tested on: total inflammatory cells in bronchoalveolar lavage fluid; assay: COPD mouse model (LPS+CS): total cell count in bronchoalveolar lavage fluid; type: in vivo, BALB/c mice; conditions: BALF; for % inhibition of total cell: vs COPD group
# Procedure: as §1
# (§4) After blood collection, the mice were dissected. To isolate cells from the bronchoalveolar lavage fluid (BALF), a syringe containing 1 ml of FBS-free DMEM medium was injected into the trachea and fixed with a string, and then cells were separated by performing circulation three times and were treated with ACK solution at 37° C. for 5 minutes to lyse red blood cells. Next, the cells were washed with FBS-free DMEM medium and then stained with 0.04% trypan blue, after which the number of total cells was measured.
# [3] = tested on: neutrophils in bronchoalveolar lavage fluid; assay: COPD mouse model (LPS+CS): neutrophil count in bronchoalveolar lavage fluid; type: in vivo, BALB/c mice; conditions: BALF; for % inhibition of neutrophil: vs COPD group
# Procedure: as §1, §4
# MIP-2 = assay: COPD mouse model: MIP-2 in bronchoalveolar lavage fluid by ELISA; type: in vivo, BALB/c mice; conditions: for MIP-2: BALF; for % inhibition of MIP-2: vs COPD group
# Procedure: as §1, §3
# Gr-1+ neutrophils = assay: COPD mouse model: Gr-1+ neutrophils in BAL by flow cytometry; type: in vivo, BALB/c mice; conditions: for Gr-1^+ neutrophils (10^4): BAL cells; for % inhibition of Gr-1^+ neutrophils: vs COPD group
# Procedure: as §1, §2
smiles,measurement,setting,value
"CCCCC/C=C\C/C=C\CCCCCCCC(=O)OCC(COC(C)=O)OC(=O)CCCCCCCCCCCCCCC (stereo not shown) [LPAG, 1-linoeoyl-2-palmitoyl-3-acetylglycerol]",Expression level of IL-4 mRNA (percentage relative to PMA-treated group),IL-4 mRNA,61.11 ± 27.49 percentage
"CCCCCCCC/C=C\CCCCCCCC(=O)OCC(COC(C)=O)OC(=O)CCCCCCCCCCCCCCCCC (stereo not shown) [OSAG, 1-oleoyl-2-stearoyl-3-acetylglycerol]",Expression level of IL-4 mRNA (percentage relative to PMA-treated group),IL-4 mRNA,55.84 ± 25.77 percentage
same,Inhibition (%) of IL-4 mRNA expression,IL-4 mRNA,44.16%
"CCCCCCCCCCCCCCCC(=O)OCC(COC(C)=O)OC(=O)CCCCCCCCCCCCCCC (stereo not shown) [PPAG, 1-palmitoyl-2-palmitoyl-3-acetylglycerol]",Expression level of IL-4 mRNA (percentage relative to PMA-treated group),IL-4 mRNA,48.62 ± 19.38 percentage
same,Inhibition (%) of IL-4 mRNA expression,IL-4 mRNA,51.38%
"CCCCCCCCCCCCCCCCCC(=O)OC(COC(C)=O)COC(=O)CCCCCCCCCCCCCCC (stereo not shown) [PSAG, 1-palmitoyl-2-stearoyl-3-acetylglycerol]",Expression level of IL-4 mRNA (percentage relative to PMA-treated group),IL-4 mRNA,70.49 ± 17.78 percentage
same,Inhibition (%) of IL-4 mRNA expression,IL-4 mRNA,29.51%
"CCCCCCCC/C=C\CCCCCCCC(=O)OCC(COC(C)=O)OC(=O)CCCCCCCCCCCCCCC (stereo not shown) [OPAG, 1-oleoyl-2-palmitoyl-3-acetylglycerol]",Expression level of IL-4 mRNA (percentage relative to PMA-treated group),IL-4 mRNA,58.58 ± 21.74 percentage
same,Inhibition (%) of IL-4 mRNA expression,IL-4 mRNA,41.42%
"CCCCCCCC/C=C\CCCCCCCC(=O)OC(COC(C)=O)COC(=O)CCCCCCCCCCCCCCC (stereo not shown) [POAG, 1-palmitoyl-2-oleoyl-3-acetylglycerol]",Expression level of IL-4 mRNA (percentage relative to PMA-treated group),IL-4 mRNA,75.47 ± 13.15 percentage
same,Inhibition (%) of IL-4 mRNA expression,IL-4 mRNA,24.53%
same,"EL-4 cell viability (%, mean ± SD)",EL-4 cells,106.39 ± 1.19%
"CCCCC/C=C\C/C=C\CCCCCCCC(=O)OC(COC(C)=O)COC(=O)CCCCCCCCCCCCCCC (stereo not shown) [EC-18, 1-palmitoyl-2-linoleoyl-3-acetylglycerol]",toxicity,[1],no-toxicity
same,survivability ratio of animals,sepsis animal model,increases survivability ratio of animals
same,CD4^+ cells (10^4),CD4+ cells; 30 mg/kg oral,308.2 ± 66.78 10^4
same,% inhibition of CD4^+ cells,CD4+ cells; 30 mg/kg oral,39.6%
same,CD4^+ cells (10^4),CD4+ cells; 60 mg/kg oral,152.8 ± 66.25 10^4
same,% inhibition of CD4^+ cells,CD4+ cells; 60 mg/kg oral,70.0%
same,TNF-α,TNF-α; 30 mg/kg oral,22.4 ± 13.98 pg/mL
same,% inhibition of TNF-α,TNF-α; 30 mg/kg oral,36.0%
same,TNF-α,TNF-α; 60 mg/kg oral,13.4 ± 5.33 pg/mL
same,% inhibition of TNF-α,TNF-α; 60 mg/kg oral,61.8%
same,CXCL-1,CXCL-1; 30 mg/kg oral,264.3 ± 79.77 pg/mL
same,% inhibition of CXCL-1,CXCL-1; 30 mg/kg oral,15.4%
same,CXCL-1,CXCL-1; 60 mg/kg oral,142.9 ± 26.99 pg/mL
same,% inhibition of CXCL-1,CXCL-1; 60 mg/kg oral,54.3%
same,Expression level of IL-4 mRNA (percentage relative to PMA-treated group),IL-4 mRNA,78.17 ± 6.26 percentage
same,Inhibition (%) of IL-4 mRNA expression,IL-4 mRNA,21.83%
same,Total cell (10^6),[2]; 30 mg/kg oral,81.0 ± 12.14^ 10^6
same,% inhibition of total cell,[2]; 30 mg/kg oral,15.1%
same,Total cell (10^6),[2]; 60 mg/kg oral,52.8 ± 10.41* 10^6
same,% inhibition of total cell,[2]; 60 mg/kg oral,44.8%
same,Neutrophil,[3]; 30 mg/kg oral,no great change
same,% inhibition of neutrophil,[3]; 30 mg/kg oral,3%
same,Neutrophil,"[3]; 30 mg/kg oral, listed as EC18",196.9 ± 31.61
same,Neutrophil,[3]; 60 mg/kg oral,116.8 ± 37.43
same,% inhibition of neutrophil,[3]; 60 mg/kg oral,42%
same,MIP-2,MIP-2; 30 mg/kg oral,28.9 ± 5.72 pg/mL
same,% inhibition of MIP-2,MIP-2; 30 mg/kg oral,40.6%
same,MIP-2,MIP-2; 60 mg/kg oral,17.6 ± 4.07 pg/mL
same,% inhibition of MIP-2,MIP-2; 60 mg/kg oral,63.8%
same,Gr-1^+ neutrophils (10^4),Gr-1+ neutrophils; 30 mg/kg oral,20.0 ± 6.97 10^4
same,% inhibition of Gr-1^+ neutrophils,Gr-1+ neutrophils; 30 mg/kg oral,40.9%
same,Gr-1^+ neutrophils (10^4),Gr-1+ neutrophils; 60 mg/kg oral,12.6 ± 4.93 10^4
same,% inhibition of Gr-1^+ neutrophils,Gr-1+ neutrophils; 60 mg/kg oral,62.7%
"CCCCC/C=C\C/C=C\CCCCCCCC(=O)OCC(COC(C)=O)OC(=O)CCCCCCCCCCCCCCCCC (stereo not shown) [LSAG, 1-linoeoyl-2-stearoyl-3-acetylglycerol]",Expression level of IL-4 mRNA (percentage relative to PMA-treated group),IL-4 mRNA,41.62 ± 17.61 percentage
